Assay results: patent US20220031815A1, “ANIMAL FEED COMPOSITION AND USE THEREOF” (DSM IP ASSETS B.V., priority 2018, published 2022)

System: male broiler chickens (Cobb-500)
Assay: In vivo broiler trial 1: growth performance under litter/density challenge
Procedure: The trial was performed at Poultrz section, INTA-EEA Pergamino, Buenos Aires, Argentina from Aug. 15, 2017 to Oct. 3, 2017. Day-old male broiler chickens (“Cobb-500”), were supplied by a commercial hatchery (Granja Tres Arroyos, Tres Arroyos 378, Buenos Aires, Argentina).
Birds were housed in a conventional barn (netting open sides with curtains) into floor pens with shaving wood as litter. Gas heaters, fans and foggers were used to control the barn temperature.
All birds were weighed, separated in categories of 1 g and distributed to form homogenous lots. Birds of extreme weights were excluded.
Feed and waer were providing ad-libitum.
The experimental diets (Starter, Growing, Finisher and last week) were based on corn, soybean meal as main ingredients (Table 3). Phytase (RONOZYME® HiPhos GT, dose 1000 FYT/kg of feed, 100 g/tn of feed) was used in all the treatments. Rovimix broilders from DSM was used as vitamin-mineral premix, and maduramycin as coccidiostat. The composition of the feed was listed as Table 4
Individual body weight and pen feed intake were determined weekly.
Based on this information feed conversion and weight gain were calculated considering each phase and the complete cycle.
The live weight/feed conversion ratio was used. This is a simplification to avoid the impact of mortality when a low number of birds per pen is used (18 in this experiment).
Uniformity (% of birds included in a range of weights of […] of the pen mean body weight) was determined in each pen at 48 days of age.

Enramycin
effect on feed conversion (Enramycin significant from day 35, muramidase at day 7 and from day 21): the feed conversion was improved
reduction of days to reach the slaughtering weight (2800 g) (effect of inclusion in feed (Enramycin 10 ppm; Muramidase 392 ppm)): 1.1 days
effect on body weight (significant from day 21): an increment in body weight was observed
